Measurements from PMC10062145 (Journal of Virology, 2023).
Residues, ends and D or L forms follow the SMILES beside them. *: point of attachment. Cbz = O=C(OCc1ccccc1)*

What was measured:
NDV F48E9 [1] = test: microbe, parasite or virus in culture; format: cell-based, Newcastle disease virus; details: for IC50: avian paramyxovirus 1, 24 h
IFN-β = format: cell-based
β-catenin = format: cell-based
[2] = system: NDV Blackbird/China/08(IX); test: microbe, parasite or virus in culture; format: cell-based, Newcastle disease virus; details: avian paramyxovirus 1, 24 h, read-out: IC50 Blackbird/China/08(IX)
[3] = system: NDV PPMV-1/SX-01/Ch/15(VI); test: microbe, parasite or virus in culture; format: cell-based, Newcastle disease virus; details: avian paramyxovirus 1, 24 h, read-out: IC50 PPMV-1/SX-01/Ch/15(VI)
NDV La sota (II) = test: microbe, parasite or virus in culture; format: cell-based, Newcastle disease virus; details: avian paramyxovirus 1, 24 h, read-out: IC50 La sota (II)
PPRV = test: microbe, parasite or virus in culture; format: cell-based, peste des petits ruminants virus
CDV = test: microbe, parasite or virus in culture; format: cell-based, canine distemper virus
VSV = test: microbe, parasite or virus in culture; format: cell-based, vesicular stomatitis virus
PRRSV = test: microbe, parasite or virus in culture; format: cell-based, porcine reproductive and respiratory syndrome virus
AIV = test: microbe, parasite or virus in culture; format: cell-based, avian influenza virus
PRV = test: microbe, parasite or virus in culture; format: cell-based, pseudorabies virus
[4] = system: PPRV, CDV, VSV, PRRSV, AIV, PRV; test: organism not typed; format: cell-based; details: read-out: IC50 against these viruses (PPRV, CDV, VSV, PRRSV, AIV, PRV)
NDV F48E9 [5] = format: cell-based, Newcastle disease virus
NDV F48E9 [6] = format: cell-based, Newcastle disease virus; remark: listed apart in the source
NDV F48E9 [7] = format: cell-based, Newcastle disease virus; remark: listed apart in the source
[8] = system: genes downstream of the Wnt/β-catenin pathway; format: cell-based
Wnt/β-catenin pathway = format: cell-based
chicken IFN-β promoter = format: cell-based
OASL = format: cell-based
MX1 = format: cell-based
GSK-3β [9] = format: binding
GSK-3β [10] = format: binding; remark: listed apart in the source
HSP90β [11] = molecular target: T1, HSP90β (Gallus gallus, UniProt Q04619); test: Cellular thermal shift assay (CETSA), HSP90β; format: binding; details: 200 μM, DF-1 cell lysate
T1 construct: endogenous in cells; host or cells: DF-1 cell lysate
T1 sequence (Q04619 whole entry): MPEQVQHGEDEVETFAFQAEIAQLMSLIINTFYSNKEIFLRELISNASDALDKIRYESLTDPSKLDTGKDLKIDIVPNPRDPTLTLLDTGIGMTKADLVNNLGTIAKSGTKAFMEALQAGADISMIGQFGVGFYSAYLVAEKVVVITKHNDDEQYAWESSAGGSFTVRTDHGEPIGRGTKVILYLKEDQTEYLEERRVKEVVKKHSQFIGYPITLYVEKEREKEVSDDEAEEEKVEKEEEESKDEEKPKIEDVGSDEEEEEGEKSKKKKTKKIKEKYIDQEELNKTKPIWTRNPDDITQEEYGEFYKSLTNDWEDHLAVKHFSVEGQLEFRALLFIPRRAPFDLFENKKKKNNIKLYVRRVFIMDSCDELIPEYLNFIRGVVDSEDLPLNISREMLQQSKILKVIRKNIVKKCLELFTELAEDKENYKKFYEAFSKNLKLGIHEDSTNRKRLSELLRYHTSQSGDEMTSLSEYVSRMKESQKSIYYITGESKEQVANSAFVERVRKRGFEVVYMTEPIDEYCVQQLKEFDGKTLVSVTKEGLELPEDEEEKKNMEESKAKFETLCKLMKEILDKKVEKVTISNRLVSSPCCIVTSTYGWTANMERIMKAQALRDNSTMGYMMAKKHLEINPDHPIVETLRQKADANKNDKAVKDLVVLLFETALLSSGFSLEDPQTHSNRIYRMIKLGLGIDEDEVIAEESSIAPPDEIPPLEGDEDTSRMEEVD

HSP90β [12] = molecular target: T1, HSP90β; test: Drug affinity responsive target stability (DARTS), HSP90β; format: binding; details: 200 μM, DF-1 cell lysate, 50 ng of pronase
F48E9 L protein = format: cell-based, Newcastle disease virus
NP, P protein = format: cell-based, Newcastle disease virus
in vitro = details: chicken

SMILES: C=CCNC1=C2C[C@@H](C)C[C@H](OC)[C@H](O)[C@@H](C)/C=C(\C)[C@H](OC(N)=O)[C@@H](OC)/C=C\C=C(/C)C(=O)NC(=CC1=O)C2=O [17-AAG]
- reduction of infectious virus particle production (NDV F48E9 [1]): 4.19 Log

SMILES: [Cl-].[Li+] [LiCl, reference compound]
- reduction in infectious virus particle production (NDV F48E9 [1]): 2.69 Log
- expression of IFN-β (IFN-β): enhanced

SMILES: CC(C)C[C@@H](C=O)NC(=O)[C@H](CC(C)C)NC(=O)[C@H](CC(C)C)NC(=O)OCc1ccccc1 [MG-132] (Cbz-Leu-Leu-Leu-aldehyde)
- amounts of β-catenin in NDV-infected cells (β-catenin): significantly restored

SMILES: NC(=O)c1ncn([C@@H]2O[C@H](CO)[C@@H](O)[C@H]2O)n1 [Ribavirin, reference compound]
- IC50 (NDV F48E9 [1]): 8620 ± 1440 nM
- IC50 [2]: 10400 ± 2850 nM
- IC50 [3]: 11600 ± 2130 nM
- IC50 (NDV La sota (II)): 7970 ± 1590 nM

SMILES: CCCCn1c2cc(O)ccc2c2ccnc(C)c21 [compound 11, 9-butyl-harmol]
- inhibitory rate (reduction compared to DMSO-treated cells), primary screening (NDV F48E9 [1]): higher than 99%
- reduction in infectious virus particle production, high dose of NDV (NDV F48E9 [1]): 3.08 Log
- reduction of infectious virus particle production (NDV F48E9 [1]): 5.26 Log
- IC50 (NDV F48E9 [1]): 490 ± 110 nM
- IC50 [2]: 630 ± 300 nM
- IC50 [3]: 710 ± 260 nM
- IC50 (NDV La sota (II)): 580 ± 80 nM
- inhibitory rate (reduction) against PPRV (PPRV): higher than 99%
- reduction of PPRV mRNA (PPRV): 100 fold
- IC50 (PPRV; peste-des-petits-ruminants virus, Vero, 24 h, read-out: IC50 PPRV): 380 ± 60 nM
- inhibitory rate (reduction) against CDV (CDV): higher than 99%
- reduction of CDV mRNA (CDV): 100 fold
- IC50 (CDV; canine distemper virus, Vero, 24 h, read-out: IC50 CDV): 400 ± 120 nM
- reduction in mRNA expression level of VSV (VSV): > 80%
- IC50 (VSV; Vesicular stomatitis virus, BHK-21, 24 h, read-out: IC50 VSV): 430 ± 160 nM
- reduction in mRNA expression level of PRRSV (PRRSV): > 80%
- IC50 (PRRSV; Porcine reproductive and respiratory syndrome virus, MARC145, 24 h, read-out: IC50 PRRSV): 540 ± 150 nM
- reduction in mRNA expression level of AIV (AIV): > 80%
- IC50 (AIV; unidentified influenza virus, A549, 24 h, read-out: IC50 AIV): 530 ± 180 nM
- reduction of mRNA of PRV (PRV): 66.83%
- IC50 (PRV; Suid alphaherpesvirus 1, BHK-21, 24 h, read-out: IC50 PRV): 810 ± 110 nM
- IC50 [4]: 380 to 810 nM
- NDV adsorption (NDV F48E9 [5]): not inhibited
- entry of NDV (NDV F48E9 [6]): no effect
- viral inhibition in time-of-addition study (NDV F48E9 [7]): significant viral inhibition
- MYC upregulation (transcriptome) [8]: 2.1287 fold
- PPARgamma upregulation (transcriptome) [8]: 2.7893 fold
- WISP1 upregulation (transcriptome) [8]: 5.2201 fold
- TOPFlash/FOPFlash luciferase activity (Wnt/β-catenin pathway): significantly activated
- IFN-β promoter activity with NDV infection (chicken IFN-β promoter): 2.89 fold
- IFN-β promoter activity without NDV infection (chicken IFN-β promoter): 4.90 fold
- expression of IFN-β with NDV infection (IFN-β): 1.95 fold
- expression of IFN-β without NDV infection (IFN-β): 3.04 fold
- expression of OASL upon F48E9 infection (OASL): 2.51 fold
- expression of MX1 upon F48E9 infection (MX1): 3.13 fold
- thermal stability of GSK-3β (CETSA) (GSK-3β [9]): strongly changed the thermal stability
- proteolysis of GSK-3β by pronase (DARTS) (GSK-3β [10]): less sensitive to proteolysis
- thermal stability of cellular HSP90β (CETSA) (HSP90β [11]): increased the thermal stability
- pronase-induced digestion of HSP90β (DARTS) (HSP90β [12]): prevented
- expression of L (F48E9 L protein): significant reduction
- expression of NP and expression of P (NP, P protein): not affected
- CC50 (in vitro): > 50000 nM

SMILES: COc1ccc2c(c1)[nH]c1c(C)nccc12 [harmine, reference compound]
- effect on NDV proliferation (harmine) (NDV F48E9 [1]): no effect
- anti-PRV activity (harmine) (PRV): excellent

SMILES: Cc1cc(/C=C2\SC(=O)N(c3ccccc3)C2=O)c(C)n1-c1cccnc1 [iCRT14]
- effect on the proliferation of NDV (NDV F48E9 [1]): no effect

SMILES: COC[C@H]1OC(=O)c2coc3c2[C@@]1(C)C1=C(C3=O)[C@@H]2CCC(=O)[C@@]2(C)C[C@H]1OC(C)=O [wortmannin]
- amounts of β-catenin in NDV-infected cells (β-catenin): no effect
